Results reported in the NIST ThermoML archive (doi:10.1016/j.jct.2011.02.018).
Numbers after ± are expanded uncertainties.

Experiment: xn = mol fraction of the nth substance listed
Conditions: 101 kPa, Liquid; for viscosity: Concentric cylinders viscometry; for mass density: Vibrating tube method

COC(C)(C)C [2-methoxy-2-methylpropane] + CC(C)O
Conditions	mass density, 293.15 K [kg/m3]	mass density, 298.15 K [kg/m3]	mass density, 303.15 K [kg/m3]	mass density, 308.15 K [kg/m3]	viscosity, 293.15 K [mPa·s]	viscosity, 298.15 K [mPa·s]	viscosity, 303.15 K [mPa·s]	viscosity, 308.15 K [mPa·s]
x1 = 0.0093	784.82 ± 0.23	780.63 ± 0.23	776.34 ± 0.23	771.97 ± 0.23	2.325 ± 0.095	1.988 ± 0.082	1.716 ± 0.07	1.488 ± 0.061
x1 = 0.0206	784.14 ± 0.23	779.92 ± 0.23	775.62 ± 0.23	771.24 ± 0.23	2.232 ± 0.091	1.919 ± 0.078	1.661 ± 0.068	1.444 ± 0.059
x1 = 0.0305	783.55 ± 0.23	779.33 ± 0.23	775.01 ± 0.23	770.65 ± 0.23	2.145 ± 0.088	1.853 ± 0.076	1.606 ± 0.066	1.399 ± 0.057
x1 = 0.0398	783 ± 0.23	778.77 ± 0.23	774.43 ± 0.23	770.06 ± 0.23	2.066 ± 0.085	1.773 ± 0.073	1.547 ± 0.063	1.35 ± 0.055
x1 = 0.0499	782.41 ± 0.23	778.17 ± 0.23	773.82 ± 0.23	769.37 ± 0.23	1.982 ± 0.082	1.719 ± 0.07	1.496 ± 0.061	1.307 ± 0.053
x1 = 0.0601	781.75 ± 0.23	777.51 ± 0.23	773.15 ± 0.23	768.84 ± 0.23	1.901 ± 0.078	1.653 ± 0.068	1.443 ± 0.059	1.264 ± 0.052
x1 = 0.0702	781.19 ± 0.23	776.93 ± 0.23	772.55 ± 0.23	768.22 ± 0.23	1.832 ± 0.075	1.595 ± 0.065	1.395 ± 0.057	1.226 ± 0.05
x1 = 0.0799	780.66 ± 0.23	776.38 ± 0.23	772 ± 0.23	767.62 ± 0.23	1.761 ± 0.072	1.538 ± 0.063	1.348 ± 0.055	1.186 ± 0.049
x1 = 0.0914	780.12 ± 0.23	775.85 ± 0.23	771.45 ± 0.23	766.96 ± 0.23	1.693 ± 0.069	1.479 ± 0.06	1.299 ± 0.053	1.145 ± 0.047
x1 = 0.1009	779.62 ± 0.23	775.32 ± 0.23	770.89 ± 0.23	766.39 ± 0.23	1.634 ± 0.067	1.432 ± 0.058	1.26 ± 0.051	1.112 ± 0.045
x1 = 0.1493	777.01 ± 0.23	772.62 ± 0.23	768.12 ± 0.23	763.55 ± 0.23	1.391 ± 0.057	1.235 ± 0.051	1.093 ± 0.045	0.9806 ± 0.04
x1 = 0.2014	774.27 ± 0.23	769.81 ± 0.23	765.24 ± 0.23	760.59 ± 0.23	1.193 ± 0.049	1.057 ± 0.043	0.9479 ± 0.039	0.8473 ± 0.035
x1 = 0.244	771.96 ± 0.23	767.45 ± 0.23	762.82 ± 0.23	758.12 ± 0.23	1.05 ± 0.043	0.9465 ± 0.039	0.8652 ± 0.035	0.7741 ± 0.032
x1 = 0.2863	769.95 ± 0.23	765.38 ± 0.23	760.69 ± 0.23	755.94 ± 0.24	0.9352 ± 0.038	0.8443 ± 0.035	0.7635 ± 0.031	0.6933 ± 0.029
x1 = 0.3081	768.87 ± 0.23	764.26 ± 0.23	759.55 ± 0.23	754.77 ± 0.24	0.885 ± 0.036	0.8004 ± 0.033	0.7251 ± 0.03	0.6588 ± 0.027
x1 = 0.351	766.72 ± 0.23	762.06 ± 0.23	757.3 ± 0.24	752.47 ± 0.24	0.8018 ± 0.033	0.729 ± 0.03	0.6639 ± 0.027	0.6054 ± 0.025
x1 = 0.3995	764.43 ± 0.23	759.73 ± 0.23	754.91 ± 0.24	750.02 ± 0.24	0.7225 ± 0.03	0.6613 ± 0.027	0.6057 ± 0.025	0.5521 ± 0.023
x1 = 0.4516	762.08 ± 0.23	757.31 ± 0.24	752.43 ± 0.24	747.48 ± 0.24	0.6544 ± 0.027	0.6008 ± 0.025	0.5514 ± 0.023	0.501 ± 0.021
x1 = 0.4999	759.97 ± 0.23	755.15 ± 0.24	750.22 ± 0.24	745.22 ± 0.24	0.6 ± 0.025	0.5578 ± 0.023	0.5139 ± 0.021	0.4673 ± 0.019
x1 = 0.5497	757.86 ± 0.24	752.98 ± 0.24	748.01 ± 0.24	742.97 ± 0.24	0.5545 ± 0.023	0.5128 ± 0.021	0.4738 ± 0.02	0.4345 ± 0.018
x1 = 0.5994	755.8 ± 0.24	750.88 ± 0.24	745.87 ± 0.24	740.79 ± 0.24	0.5151 ± 0.021	0.477 ± 0.02	0.4395 ± 0.018	0.4032 ± 0.017
x1 = 0.6493	753.77 ± 0.24	748.81 ± 0.24	743.75 ± 0.24	738.63 ± 0.24	0.4839 ± 0.02	0.4481 ± 0.019	0.4129 ± 0.017	0.3822 ± 0.016
x1 = 0.6993	751.8 ± 0.24	746.81 ± 0.24	741.69 ± 0.24	736.5 ± 0.24	0.4525 ± 0.019	0.4253 ± 0.018	0.3938 ± 0.017	0.3678 ± 0.015
x1 = 0.7499	749.84 ± 0.24	744.78 ± 0.24	739.62 ± 0.24	734.4 ± 0.24	0.4259 ± 0.018	0.398 ± 0.017	0.3695 ± 0.015	0.3487 ± 0.015
x1 = 0.8015	747.89 ± 0.24	742.8 ± 0.24	737.6 ± 0.24	732.34 ± 0.24	0.4066 ± 0.017	0.3819 ± 0.016	0.352 ± 0.015	0.3323 ± 0.014
x1 = 0.8509	746.05 ± 0.24	740.92 ± 0.24	735.7 ± 0.24	730.41 ± 0.24	0.3844 ± 0.016	0.3613 ± 0.015	0.3397 ± 0.014	0.3136 ± 0.013
x1 = 0.8997	744.25 ± 0.24	739.1 ± 0.24	733.84 ± 0.24	728.52 ± 0.24	0.3678 ± 0.015	0.3459 ± 0.015	0.3193 ± 0.013	0.303 ± 0.013
x1 = 0.9089	743.91 ± 0.24	738.76 ± 0.24	733.49 ± 0.24	728.17 ± 0.24	0.3718 ± 0.016	0.3448 ± 0.015	0.3254 ± 0.014	0.298 ± 0.013
x1 = 0.9191	743.54 ± 0.24	738.35 ± 0.24	733.11 ± 0.24	727.78 ± 0.24	0.3617 ± 0.015	0.3398 ± 0.014	0.3152 ± 0.013	0.2968 ± 0.013
x1 = 0.9294	743.17 ± 0.24	737.99 ± 0.24	732.74 ± 0.24	727.41 ± 0.24	0.3609 ± 0.015	0.3374 ± 0.014	0.3121 ± 0.013	0.2986 ± 0.013
x1 = 0.9401	742.78 ± 0.24	737.6 ± 0.24	732.34 ± 0.24	727.01 ± 0.24	0.3548 ± 0.015	0.3317 ± 0.014	0.307 ± 0.013	0.293 ± 0.013
x1 = 0.9512	742.37 ± 0.24	737.18 ± 0.24	731.91 ± 0.24	726.58 ± 0.24	0.355 ± 0.015	0.3361 ± 0.014	0.3045 ± 0.013	0.2959 ± 0.013
x1 = 0.9587	742.11 ± 0.24	736.92 ± 0.24	731.64 ± 0.24	726.3 ± 0.24	0.3558 ± 0.015	0.3309 ± 0.014	0.3021 ± 0.013	0.2906 ± 0.013
x1 = 0.97	741.7 ± 0.24	736.51 ± 0.24	731.24 ± 0.24	725.88 ± 0.24	0.3466 ± 0.015	0.3247 ± 0.014	0.302 ± 0.013	0.2819 ± 0.012
x1 = 0.9777	741.42 ± 0.24	736.23 ± 0.24	730.94 ± 0.24	725.59 ± 0.24	0.3447 ± 0.015	0.3228 ± 0.014	0.2983 ± 0.013	0.2804 ± 0.012
x1 = 0.9897	740.99 ± 0.24	735.8 ± 0.24	730.5 ± 0.24	725.16 ± 0.24	0.342 ± 0.014	0.3204 ± 0.014	0.2943 ± 0.013	0.283 ± 0.012
